Measurements from ChEMBL document CHEMBL4808184, “Discovery and Optimization of DNA Gyrase and Topoisomerase IV Inhibitors with Potent Activity against Fluoroquinolone-Resistant Gram-Positive Bacteria” (J Med Chem, 2021).
Values after ≈ are worked out from the molar mass of the structure shown.

What was measured:
physchem [1] = settings: octanol/water, pH 7.4
Staphylococcus aureus [2] = assay: microbe, parasite or virus in culture; settings: ATCC 49951
physchem [3] = assay: physchem
Staphylococcus aureus [4] = assay: microbe, parasite or virus in culture; settings: ATCC 49951; remark: listed apart in the source

Compound	logD (physchem [1])	MIC (Staphylococcus aureus [2])	pKa (physchem [3])	MIC (Staphylococcus aureus [4])
C[C@H]1COc2c(N3C[C@@H]4CCC[C@H](N)[C@H]4C3)c(F)cc3cc(C(=O)O)c(=O)n1c23	-1.03	0.5 µg/mL (≈ 1.25 µM)	5.2	0.06 µg/mL (≈ 0.149 µM)
C[C@H]1COc2c(N3CC[C@@H](C4(N)CC4)C3)ccc3cc(C(=O)O)c(=O)n1c23		4 µg/mL (≈ 10.8 µM)		
Cc1c(N2CC[C@@H](C3(N)CC3)C2)c(F)cc2cc(Cc3n[nH]c(=O)o3)c(=O)n(C3CC3)c12	0.87	32 µg/mL (≈ 72.8 µM)	8.8	32 µg/mL (≈ 72.8 µM)
C[C@H]1COc2c(N3CC[C@@H](C4(N)CC4)C3)c(F)c(F)c3cc(C(=O)O)c(=O)n1c23	-0.85	1 µg/mL (≈ 2.47 µM)		0.06 µg/mL (≈ 0.148 µM)
C[C@H]1COc2c(N3C[C@@H]4CCCN[C@@H]4C3)c(F)cc3cc(C(=O)O)c(=O)n1c23	-1.46	32 µg/mL (≈ 82.6 µM)	5	1 µg/mL (≈ 2.58 µM)
C[C@H]1COc2c(N3CC[C@@H](C4(N)CC4)C3)cc(F)c3cc(C(=O)O)c(=O)n1c23	-0.4	2 µg/mL (≈ 5.16 µM)		0.25 µg/mL (≈ 0.645 µM)
Cc1c(N2CCC(C3(N)CC3)C2)c(F)cc2c(-c3cc(O)no3)cc(=O)n(C3CC3)c12 (configuration not stated)	0.29	2 µg/mL (≈ 4.71 µM)	4.7	1 µg/mL (≈ 2.36 µM)
C[C@H]1COc2c(N3C[C@H]4[C@H](C3)OCC[C@@H]4N)c(F)cc3cc(C(=O)O)c(=O)n1c23	-1.72	1 µg/mL (≈ 2.48 µM)	4.8	≤ 0.03 µg/mL
C[C@H]1COc2c(N3CC[C@@H](C4(N)CC4)C3)c(F)c(Cl)c3cc(C(=O)O)c(=O)n1c23	-0.46	0.5 µg/mL (≈ 1.19 µM)		≤ 0.03 µg/mL
C[C@H]1CCc2c(N3CC[C@@H](C4(N)CC4)C3)c(F)cc3cc(C(=O)O)c(=O)n1c23	-0.27	1 µg/mL (≈ 2.59 µM)		0.06 µg/mL (≈ 0.156 µM)
C[C@H]1COc2c(N3CC[C@@H](C4(N)CCC4)C3)c(F)cc3cc(C(=O)O)c(=O)n1c23	-1.42	2 µg/mL (≈ 4.98 µM)	4.9	0.125 µg/mL (≈ 0.311 µM)
Cc1c(N2CCC(C3(N)CC3)C2)c(F)cc2c(Cc3noc(=O)[nH]3)cc(=O)n(C3CC3)c12 (configuration not stated)	-0.74	32 µg/mL (≈ 72.8 µM)	5.1	4 µg/mL (≈ 9.1 µM)
C[C@H]1COc2c(N3CC[C@H](N)C3)c(F)cc3cc(C(=O)O)c(=O)n1c23	< -2	> 32 µg/mL	4.8	2 µg/mL (≈ 5.76 µM)
C[C@H]1COc2c(N3CCN(C)CC3)c(F)cc3cc(C(=O)O)c(=O)n1c23	-1.99	> 32 µg/mL	4.5	16 µg/mL (≈ 44.3 µM)
Cc1c(N2CC[C@@H](C3(N)CC3)C2)c(F)cc2cc(C#N)c(=O)n(C3CC3)c12	1.19	0.06 µg/mL (≈ 0.164 µM)	8.4	0.06 µg/mL (≈ 0.164 µM)
C[C@H]1COc2c(N3CC[C@@H](C4(N)CC4)C3)c(F)c(C#N)c3cc(C(=O)O)c(=O)n1c23	-1.86	1 µg/mL (≈ 2.42 µM)		0.125 µg/mL (≈ 0.303 µM)
Cc1c(N2CCC(C3(N)CC3)C2)c(F)cc2c(Cc3noc(=S)[nH]3)cc(=O)n(C3CC3)c12 (configuration not stated)	-0.3	8 µg/mL (≈ 17.6 µM)	2.5	8 µg/mL (≈ 17.6 µM)
Cc1c(N2CCC(C3(N)CC3)C2)c(F)cc2c(-c3noc(=S)[nH]3)cc(=O)n(C3CC3)c12 (configuration not stated)		4 µg/mL (≈ 9.06 µM)	2	4 µg/mL (≈ 9.06 µM)
C[C@H]1COc2c(N3CC[C@@H](C4(N)CC4)C3)c(Cl)cc3cc(C(=O)O)c(=O)n1c23	-1.12	32 µg/mL (≈ 79.2 µM)		2 µg/mL (≈ 4.95 µM)
Cc1c(N2CC[C@@H](C3(N)CC3)C2)c(F)cc2cc(-c3nnco3)c(=O)n(C3CC3)c12		0.125 µg/mL (≈ 0.305 µM)	8.3	0.125 µg/mL (≈ 0.305 µM)
COc1cc2cc(C(=O)O)c(=O)n3c2c(c1N1CC[C@@H](C2(N)CC2)C1)OC[C@@H]3C	-1.22	> 32 µg/mL		32 µg/mL (≈ 80.1 µM)
Cc1c(N2CC[C@@H](C3(N)CC3)C2)c(F)cc2cc(-c3n[nH]c(=O)o3)c(=O)n(C3CC3)c12		0.06 µg/mL (≈ 0.141 µM)	7.2	0.125 µg/mL (≈ 0.294 µM)

Compound	logD (physchem [1])	MIC (Staphylococcus aureus [2])	pKa (physchem [3])	MIC (Staphylococcus aureus [4])
C[C@H]1COc2c(N3CC[C@@H](C4(N)CC4)C3)cc(Cl)c3cc(C(=O)O)c(=O)n1c23		1 µg/mL (≈ 2.48 µM)		
C[C@H]1Cc2c(N3CC[C@@H](C4(N)CC4)C3)c(F)cc3cc(C(=O)O)c(=O)n1c23	-0.51	8 µg/mL (≈ 21.5 µM)		0.25 µg/mL (≈ 0.673 µM)
Cc1c(N2CCC(C3(N)CC3)C2)c(F)cc2c(Cc3cc(O)no3)cc(=O)n(C3CC3)c12 (configuration not stated)	-0.9	8 µg/mL (≈ 18.2 µM)	3.9	8 µg/mL (≈ 18.2 µM)
C[C@H]1COc2c(N3CC[C@@H](C4(N)CC4)C3)cc(C#N)c3cc(C(=O)O)c(=O)n1c23	-0.55	2 µg/mL (≈ 5.07 µM)		0.25 µg/mL (≈ 0.634 µM)
C[C@H]1COc2c(N3CC(CN)C4(CCC4)C3)c(F)cc3cc(C(=O)O)c(=O)n1c23 (some centres not stated)	-0.66	2 µg/mL (≈ 4.98 µM)	5.2	0.125 µg/mL (≈ 0.311 µM)
C[C@H]1COc2c(N3CC[C@H](O)C3)c(F)cc3cc(C(=O)O)c(=O)n1c23	-0.46	> 32 µg/mL	5.2	0.5 µg/mL (≈ 1.44 µM)
C[C@H]1CCOc2c(N3CC[C@@H](C4(N)CC4)C3)c(F)cc3cc(C(=O)O)c(=O)n1c23	0.01	8 µg/mL (≈ 19.9 µM)		0.25 µg/mL (≈ 0.623 µM)
Cc1c(N2CC[C@@H](C3(N)CC3)C2)c(F)cc2cc(C(N)=O)c(=O)n(C3CC3)c12		1 µg/mL (≈ 2.6 µM)	8.4	0.25 µg/mL (≈ 0.65 µM)
Cc1c(N2CCC(C3(N)CC3)C2)c(F)cc2c(-c3n[nH]c(=O)o3)cc(=O)n(C3CC3)c12 (configuration not stated)		1 µg/mL (≈ 2.35 µM)	6.4	0.5 µg/mL (≈ 1.18 µM)
C[C@@H]1COc2c(N3CC[C@@H](C4(N)CC4)C3)c(F)cc3cc(C(=O)O)c(=O)n1c23	-0.92	> 32 µg/mL		16 µg/mL (≈ 41.3 µM)
C[C@H]1COc2c(N3CC[C@@H](C4(N)CC4)C3)c(C#N)cc3cc(C(=O)O)c(=O)n1c23	-1.77	4 µg/mL (≈ 10.1 µM)		0.25 µg/mL (≈ 0.634 µM)
Cc1c(N2CC[C@@H](C3(N)CC3)C2)c(F)cc2cc(-c3noc(=O)[nH]3)c(=O)n(C3CC3)c12	-0.32	0.125 µg/mL (≈ 0.294 µM)	5.4	0.125 µg/mL (≈ 0.294 µM)
Cc1c(N2CC[C@@H](C3(N)CC3)C2)c(F)cc2cc(-c3ncon3)c(=O)n(C3CC3)c12	1.46	0.5 µg/mL (≈ 1.22 µM)	8.4	0.25 µg/mL (≈ 0.611 µM)
C[C@H]1COc2c(N3CCC(=C(Cl)CN)CC3)c(F)cc3cc(C(=O)O)c(=O)n1c23	-0.39	> 32 µg/mL		4 µg/mL (≈ 9.48 µM)
C[C@H]1COc2c(N3CC[C@@H](C4(N)CC4)C3)c(F)c(N)c3cc(C(=O)O)c(=O)n1c23	-0.97	8 µg/mL (≈ 19.9 µM)		0.5 µg/mL (≈ 1.24 µM)
C[C@H]1COc2c(N3CC4C[C@@H](OC(F)F)C[C@@H](N)[C@H]4C3)c(F)cc3cc(C(=O)O)c(=O)n1c23 (single isomer, unassigned)	-0.4	1 µg/mL (≈ 2.14 µM)	5.2	0.06 µg/mL (≈ 0.128 µM)
C[C@H]1COc2c(N3CC4C[C@H](F)C[C@@H](N)[C@H]4C3)c(F)cc3cc(C(=O)O)c(=O)n1c23 (single isomer, unassigned)	-1.04	0.06 µg/mL (≈ 0.143 µM)	5.07	≤ 0.03 µg/mL
CO[C@@H]1CC2CN(c3c(F)cc4cc(C(=O)O)c(=O)n5c4c3OC[C@@H]5C)C[C@@H]2[C@H](N)C1 (single isomer, unassigned)	-1.5	0.25 µg/mL (≈ 0.579 µM)	5.2	≤ 0.03 µg/mL
C[C@H]1COc2c(N3CC4OCC[C@@H](N)[C@H]4C3)c(F)cc3cc(C(=O)O)c(=O)n1c23 (single isomer, unassigned)	-1.66	1 µg/mL (≈ 2.48 µM)	5.2	0.125 µg/mL (≈ 0.31 µM)
CO[C@@H]1CC[C@@H](N)[C@H]2CN(c3c(F)cc4cc(C(=O)O)c(=O)n5c4c3OC[C@@H]5C)CC12 (single isomer, unassigned)	-1.28	0.25 µg/mL (≈ 0.579 µM)	4.9	≤ 0.03 µg/mL
C[C@H]1COc2c(N3CC4CCC[C@@H](N)[C@H]4C3)c(F)cc3cc(C(=O)O)c(=O)n1c23 (single isomer, unassigned)	-0.68	0.25 µg/mL (≈ 0.623 µM)	5.2	≤ 0.03 µg/mL
